Experimental data published in patent US7056679B2, “Target specific screening and its use for identifying target binders” (Antyra, Inc., priority 2001, dated 2006).
No end group written: not given here.

Key:
[1] = system: lactate dehydrogenase (LDH); assay: ELISA analysis of phage on LDH (irrelevant, non-specific target); assay type: binding; conditions: peptide binding to LDH polypeptide (non-specific binding); phage ELISA units read at 405 nm
In short: (§1)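 Phage from picked clones (M13KO7 helper) bound 2 hr at room temperature to wells coated overnight at 4 °C with 500 ng/well anti-ETAG antibody or LDH, milk-blocked. Detection with HRP-anti-M13 (1:3000) and ABTS at 405 nm; positive when A405 ≥2-fold over background.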

DGI-2 = biological target: T1, DGI-2 (Homo sapiens, UniProt Q15004); assay: ELISA analysis of phage on DGI-2 polypeptide (specific binding); conditions: for DGI-2 (OD): binding to DGI-2 polypeptide (specific binding), phage ELISA units read at 405 nm; for DGI-2/LDH (OD): ratio of specific binding to non-specific binding
T1 construct: encompassed the entire DGI-2 open reading frame (ORF); His-tag of vector pIVEX2.3-MCS (inferred from the vector and from the reverse primer lacking a stop codon); made in house; host or cells: cell-free in vitro translation (Rapid Translation System RTS, Roche; E. coli lysate)
T1 sequence (Q15004 1-111): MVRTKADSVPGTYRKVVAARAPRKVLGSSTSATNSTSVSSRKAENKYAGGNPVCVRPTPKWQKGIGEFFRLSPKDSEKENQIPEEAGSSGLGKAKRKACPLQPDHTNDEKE
In short: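 Recombinant DGI-2 from in vitro translation, LDH (non-specific) and controls were coated at 500 ng/well and blocked with 2% milk-PBS. Phage from individual clones bound for 2 hr at room temperature, then anti-M13-HRP with ABTS was read at 405 nm; a clone counted as positive at ≥2-fold over background.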

E-tag antibody = assay: ELISA analysis of phage on antibody raised against ETAG (positive control); conditions: peptide binding to E-tag antibody; phage ELISA units read at 405 nm
In short: as §1

Substance	LDH (OD) [1]	DGI-2 (OD) (DGI-2)	DGI-2/LDH (OD) (DGI-2)	ETAG (OD) (E-tag antibody)
SLSLYWDAQVGCEVFWGYCV (DGI-2-20R-3-C10; listed as Escherichia coli)	1.0 OD	2.2 OD	2.1	14.7 OD
SRELGKWGRLWQDWSSGNFS (DGI-2-20R-3-C11; listed as Escherichia coli)	1.0 OD	8.6 OD	8.3	18.9 OD
SRGMAEAQFSAWPVLAVFPL (DGI-2-20F-PP-H8; listed as Escherichia coli)	0.9 OD	1.6 OD	1.9	32.4 OD
SRPGWCSRGTAWGFPGCSSS (DGI-2-20R-3-C4; listed as Escherichia coli)	1.1 OD	4.5 OD	4.2	19.1 OD
SSVWATWGSDLRTFGSVGFL (DGI-2-20F-PP-C7; listed as Escherichia coli)	1.1 OD	3.0 OD	2.6	11.0 OD
SVSGGGVFGTGGRVRHQVSG (DGI-2-20F-PP-C5; listed as Escherichia coli)	0.9 OD	2.2 OD	2.4	33.9 OD
SVTISTSCRTGCPAGYLRRD (DGI-2-20F-PP-D2; listed as Escherichia coli)	0.7 OD	2.2 OD	3.1	30.8 OD
SWACGLLWPGECGSQVARRG (DGI-2-20R-3-D127; listed as Escherichia coli)	1.0 OD	6.7 OD	6.4	15.4 OD
SWRLWVSGELQGDRRKGLRG (DGI-2-20R-3-B7; listed as Escherichia coli)	1.0 OD	3.1 OD	3.0	11.7 OD
SYRNFAMQSSLQVRRGSVVEDGTCWWEGVRCYSG (DGI-2-40F-4-F6; listed as Escherichia coli)	1.0 OD	3.2 OD	3.2	13.5 OD
TANGHRYGGCGLWCKWMSGM (DGI-2-20R-4-E2; listed as Escherichia coli)	1.1 OD	2.7 OD	2.5	18.2 OD
TCWIHRGLNVVRYSVNFGVRDARLTTQGMAWFPPGCGQGCV (TCWHRGLNVVRYSVNFGVRDARLTTQGMAWFPPGCGQGCV; DGI-2-40F-4-E62; listed as Escherichia coli)	1.0 OD	4.6 OD	4.5	14.8 OD
TFTRDVAGPAVSFVRLHSWN (DGI-2-20F-PP-A9; listed as Escherichia coli)	1.2 OD	2.7 OD	2.3	40.8 OD
TIDVARRFGYGWWDLWLDGD (DGI-2-20R-3-C3; listed as Escherichia coli)	1.1 OD	7.9 OD	7.0	20.2 OD
TLVTEGNIKGSVKAHKDIGVWQLWWDWLSVTDSETVGRVSH (TLVTEGNKGSVKAHKDIGVWQLWWDWLSVTDSETVGRVSH; DGI-2-40F-3-D10; listed as Escherichia coli) [DGL-2-40F-3-D10]	0.9 OD	1.5 OD	1.7	10.3 OD
TPDRCLIYSSIQCLLEYSARRGSAD (DGI-2-20C-3-C65; listed as Escherichia coli)	1.0 OD	1.8 OD	1.8	7.4 OD
TPVAISIPAGVCSTSVCGRD (DGI-2-20F-PP-C11; listed as Escherichia coli)	0.9 OD	2.4 OD	2.6	3.2 OD
TSCQVMFLAGQHLLSRVPRL (DGI-2-20R-3-B6; listed as Escherichia coli) [DGL-2-20R-3-B6]	1.0 OD	2.8 OD	2.7	11.7 OD
TVKFQGVVQERSRIAGFRYCGDHAVSWGLAGCPALRDKLQ (DGI-2-40F-3-C424; listed as Escherichia coli)	1.1 OD	5.5 OD	5.2	14.8 OD

Substance	LDH (OD) [1]	DGI-2 (OD) (DGI-2)	DGI-2/LDH (OD) (DGI-2)	ETAG (OD) (E-tag antibody)
V#CR#LCRLCRFSMRCGGLSLVLGSAAAFFCEVFVGFCV (VCRLCRLCRFSMRCGGLSLVLGSAAAFFCEVFVGFCV; not fully specified (residues 1, 3); cysteine pairing not given here; also: TAA stop codons (#) after V1 and after R3; listed as Escherichia coli) [DGI-2-40F-4-E1130]	0.9 OD	2.9 OD	3.2	8.3 OD
VAFGEQJRVAMAGTLWQRWR (VAFGEQIRVAMAGTLWQRWR; not fully specified; non-natural residue J; DGI-2-20R-3-D5; listed as Escherichia coli)	1.1 OD	1.5 OD	1.4	8.5 OD
VCGQRVARMQLNKTIRKLDS (DGI-2-20F-PP-A6; listed as Escherichia coli)	1.1 OD	3.1 OD	2.8	35.1 OD
VCSGGKGTWLEIPDRVRSST (DGI-2-20F-PP-A22; listed as Escherichia coli)	1.0 OD	3.3 OD	3.1	44.1 OD
VGHLLSRCAHHSPGMGASPYG (DGI-2-20F-PP-B11; listed as Escherichia coli)	1.0 OD	2.6 OD	2.7	40.8 OD
VGQSSGDARPLANLFVFPFV (DGI-2-20F-PP-F12; listed as Escherichia coli)	0.9 OD	2.1 OD	2.3	47.6 OD
VHSQGRMWAIPGLRGGTGAS (DGI-2-20R-3-D7; listed as Escherichia coli)	1.0 OD	5.2 OD	5.3	18.7 OD
VLCLE#ALGLSGLGWRVVVGP (VLCLEALGLSGLGWRVVVGP; DGI-2-20F-PP-G4; listed as Escherichia coli)	1.1 OD	2.5 OD	2.2	25.6 OD
VLGADAGMIWFMDGCGIRCR (DGI-2-20R-4-E6; listed as Escherichia coli)	1.0 OD	7.0 OD	7.0	19.1 OD
VLQRSLWKDWVDGVMHGGGSRGV (DGI-2-20R-3-A7; listed as Escherichia coli)	0.9 OD	4.8 OD	5.1	13.9 OD
VQFAMTLSSRLWQHARHPLTDDAPPTVSFGTRRETLAGKA (DGI-2-40F-3-D3; listed as Escherichia coli)	0.9 OD	0.9 OD	1.1	0.9 OD
VQSGRDLGGLLRGGTGTEASP (DGI-2-20F-PP-D3; listed as Escherichia coli)	0.9 OD	2.2 OD	2.4	15.0 OD
VRAVYSRDAYNEVGRWMRVGI (DGI-2-20F-PP-D9; listed as Escherichia coli)	1.0 OD	2.9 OD	2.9	9.0 OD
VSFAHDWGRWWYQWEVG (DGI-2-20R-4-G22; listed as Escherichia coli)	1.2 OD	7.9 OD	6.5	12.9 OD
VSGVPDGSMRAAQLASGYWC (DGI-2-20F-PP-G2; listed as Escherichia coli)	1.1 OD	2.4 OD	2.1	5.6 OD
VSGY#SLWWCGPGWGPRSGR (VSGYSLWWCGPGWGPRSGR; DGI-2-20F-PP-H11; listed as Escherichia coli)	0.8 OD	1.6 OD	2.0	2.1 OD
VTGTRFRGFAVACVRMGTWH (DGI-2-20F-PP-F2; listed as Escherichia coli)	1.0 OD	2.4 OD	2.5	1.9 OD
VVGYAQGDGLEGGLGSSRDGS (DGI-2-20F-PP-D8; listed as Escherichia coli)	1.1 OD	2.3 OD	2.2	2.6 OD
